Values quoted from earlier work as cited in article PMC11876601 (Molecular Systems Biology, 2025).
Where two headings read alike, the source gives them in different places.

Legend:
RASSF5 = test system: RASSF5; set-up: method as in Klaeger et al. (2017); settings: RASSF5, 4 cell line mix lysate, Kinobeads y, ref Klaeger et al. (2017); cited from earlier work
ACVR1B = test system: ACVR1B; set-up: method as in Klaeger et al. (2017); settings: lysate 4 cell line mix (Colo205, K-562, MV-4-11, and SK-N-BE(2)), Kinobeads y, ref Klaeger et al. (2017); cited from earlier work
RPS6KA1 = test system: RPS6KA1; set-up: method as in Klaeger et al. (2017); settings: lysate 4 cell line mix (Colo205, K-562, MV-4-11, and SK-N-BE(2)), Kinobeads y, ref Klaeger et al. (2017); cited from earlier work
MAP4K5 = test system: MAP4K5; set-up: method as in Klaeger et al. (2017); settings: MAP4K5, 4 cell line mix lysate, Kinobeads y, ref Klaeger et al. (2017); cited from earlier work
PRKAB2 = test system: PRKAB2; set-up: method as in Klaeger et al. (2017); settings: lysate 4 cell line mix (Colo205, K-562, MV-4-11, and SK-N-BE(2)), Kinobeads y, ref Klaeger et al. (2017); cited from earlier work
MAPK9 = test system: MAPK9; set-up: method as in Klaeger et al. (2017); settings: lysate 4 cell line mix (Colo205, K-562, MV-4-11, and SK-N-BE(2)), Kinobeads y, ref Klaeger et al. (2017); cited from earlier work
PRKCA = test system: PRKCA; set-up: method as in Klaeger et al. (2017); settings: lysate 4 cell line mix (Colo205, K-562, MV-4-11, and SK-N-BE(2)), Kinobeads y, ref Klaeger et al. (2017); cited from earlier work
PDGFRB [1] = test system: PDGFRB; set-up: method as in Klaeger et al. (2017); settings: lysate 4 cell line mix (Colo205, K-562, MV-4-11, and SK-N-BE(2)), Kinobeads y, ref Klaeger et al. (2017); cited from earlier work
MOB1A;MOB1B = test system: MOB1A;MOB1B; set-up: method as in Klaeger et al. (2017); settings: 4 cell line mix lysate, Kinobeads y, ref Klaeger et al. (2017); cited from earlier work
GAK = settings: 5 cell line mix lysate, Kinobeads ε, ref Reinecke et al. (2023), cited from earlier work
PHKA2 = test system: PHKA2; set-up: method as in Reinecke et al. (2023); settings: PHKA2, 5 cell line mix lysate, Kinobeads ε, ref Reinecke et al. (2023), cited from earlier work
SLK = molecular target: SLK; set-up: method as in Reinecke et al. (2023); settings: 5 cell line mix lysate, Kinobeads ε, ref Reinecke et al. (2023), cited from earlier work
FRK = molecular target: FRK; set-up: method as in Reinecke et al. (2023); settings: 5 cell line mix lysate, Kinobeads ε, ref Reinecke et al. (2023), cited from earlier work
BCR = settings: 5 cell line mix lysate, Kinobeads ε, ref Reinecke et al. (2023), cited from earlier work
WEE1 = settings: WEE1, 5 cell line mix lysate, Kinobeads ε, ref Reinecke et al. (2023), cited from earlier work
PRKAB1 = test system: PRKAB1; set-up: method as in Reinecke et al. (2023); settings: PRKAB1, 5 cell line mix lysate, Kinobeads ε, ref Reinecke et al. (2023), cited from earlier work
CSNK2A1;CSNK2A3 = settings: CSNK2A1;CSNK2A3, 5 cell line mix lysate, Kinobeads ε, ref Reinecke et al. (2023), cited from earlier work
PDGFRB [2] = molecular target: PDGFRB; set-up: method as in Reinecke et al. (2023); settings: 5 cell line mix lysate, Kinobeads ε, ref Reinecke et al. (2023), cited from earlier work
MAPKAPK5 = test system: MAPKAPK5; set-up: method as in Reinecke et al. (2023); settings: MAPKAPK5, 5 cell line mix lysate, Kinobeads ε, ref Reinecke et al. (2023), cited from earlier work
CSNK2A2 = settings: CSNK2A2, 5 cell line mix lysate, Kinobeads ε, ref Reinecke et al. (2023), cited from earlier work
PTK2B = molecular target: PTK2B; set-up: method as in Reinecke et al. (2023); settings: 5 cell line mix lysate, Kinobeads ε, ref Reinecke et al. (2023), cited from earlier work
PRKD1 = test system: PRKD1; set-up: method as in Reinecke et al. (2023); settings: PRKD1, 5 cell line mix lysate, Kinobeads ε, ref Reinecke et al. (2023), cited from earlier work
FGFR1 = test system: FGFR1; set-up: method as in Reinecke et al. (2023); settings: FGFR1, 5 cell line mix lysate, Kinobeads ε, ref Reinecke et al. (2023), cited from earlier work
IGF1R = molecular target: IGF1R; set-up: method as in Reinecke et al. (2023); settings: 5 cell line mix lysate, Kinobeads ε, ref Reinecke et al. (2023), cited from earlier work

C[C@]12O[C@H](C[C@]1(O)CO)n1c3ccccc3c3c4c(c5c6ccccc6n2c5c31)CNC4=O [Lestaurtinib]
EC50 (RASSF5): 73 nM
EC50 (RPS6KA1): 3290 nM
EC50 (PRKAB2): 3520 nM
EC50 (MAPK9): 2470 nM
EC50 (PRKCA): 2470 nM
EC50 (MOB1A;MOB1B): 34 nM

COc1cc(N2CCC(N3CCN(C)CC3)CC2)ccc1Nc1ncc(Cl)c(Nc2ccccc2P(C)(C)=O)n1 [Brigatinib]
Kd (GAK; read-out: KDapp): 5.8 nM
EC50 (GAK): 10.3 nM
pKDapp (GAK): 8.24
EC50 (PHKA2): 19.7 nM
pKDapp (PHKA2): 7.71
Kd (PHKA2; read-out: KDapp): 19.7 nM
Kd (SLK; read-out: KDapp): 466 nM
EC50 (SLK): 523 nM
pKDapp (SLK): 6.33
Kd (FRK; read-out: KDapp): 53 nM
EC50 (FRK): 156 nM
pKDapp (FRK): 7.28
Kd (BCR; read-out: KDapp): 504 nM
EC50 (BCR): 1050 nM
pKDapp (BCR): 6.30
EC50 (WEE1): 1950 nM
pKDapp (WEE1): 5.91
Kd (WEE1; read-out: KDapp): 1240 nM
EC50 (PRKAB1): 507 nM
pKDapp (PRKAB1): 6.47
Kd (PRKAB1; read-out: KDapp): 335 nM
EC50 (CSNK2A1;CSNK2A3): 331 nM
pKDapp (CSNK2A1;CSNK2A3): 6.48
Kd (CSNK2A1;CSNK2A3; read-out: KDapp): 331 nM
Kd (PDGFRB [2]; read-out: KDapp): 737 nM
EC50 (PDGFRB [2]): 843 nM
pKDapp (PDGFRB [2]): 6.13
EC50 (MAPKAPK5): 62.7 nM
pKDapp (MAPKAPK5): 7.23
Kd (MAPKAPK5; read-out: KDapp): 58.3 nM
EC50 (CSNK2A2): 720 nM
pKDapp (CSNK2A2): 6.16
Kd (CSNK2A2; read-out: KDapp): 693 nM
Kd (PTK2B; read-out: KDapp): 5.14 nM
EC50 (PTK2B): 12.4 nM
pKDapp (PTK2B): 8.29
EC50 (PRKD1): 45.9 nM
pKDapp (PRKD1): 7.50
Kd (PRKD1; read-out: KDapp): 31.4 nM
EC50 (FGFR1): 419 nM
pKDapp (FGFR1): 6.51
Kd (FGFR1; read-out: KDapp): 308 nM
Kd (IGF1R; read-out: KDapp): 1320 nM
EC50 (IGF1R): 2000 nM
pKDapp (IGF1R): 5.88
